Measured values as given in publication PMC6874179, “Development of Macrocycle Kinase Inhibitors for ALK2 Using Fibrodysplasia Ossificans Progressiva‐Derived Endothelial Cells” (JBMR Plus, 2019).

Key:
ABL1_G250E = molecular target: T1, ABL1_G250E (Homo sapiens, UniProt P00519, G250E); assay: Proqinase Kinase profiling; assay type: biochemical; conditions: read-out: % inhibition at 100nM
T1 construct: purchased DiscoverX

RPS6KA6 = molecular target: T2, RPS6KA6 (Homo sapiens, UniProt Q9UK32); assay: Proqinase Kinase profiling; assay type: biochemical; conditions: read-out: % inhibition at 100nM
T2 construct: purchased DiscoverX
T2 sequence (Q9UK32 whole entry): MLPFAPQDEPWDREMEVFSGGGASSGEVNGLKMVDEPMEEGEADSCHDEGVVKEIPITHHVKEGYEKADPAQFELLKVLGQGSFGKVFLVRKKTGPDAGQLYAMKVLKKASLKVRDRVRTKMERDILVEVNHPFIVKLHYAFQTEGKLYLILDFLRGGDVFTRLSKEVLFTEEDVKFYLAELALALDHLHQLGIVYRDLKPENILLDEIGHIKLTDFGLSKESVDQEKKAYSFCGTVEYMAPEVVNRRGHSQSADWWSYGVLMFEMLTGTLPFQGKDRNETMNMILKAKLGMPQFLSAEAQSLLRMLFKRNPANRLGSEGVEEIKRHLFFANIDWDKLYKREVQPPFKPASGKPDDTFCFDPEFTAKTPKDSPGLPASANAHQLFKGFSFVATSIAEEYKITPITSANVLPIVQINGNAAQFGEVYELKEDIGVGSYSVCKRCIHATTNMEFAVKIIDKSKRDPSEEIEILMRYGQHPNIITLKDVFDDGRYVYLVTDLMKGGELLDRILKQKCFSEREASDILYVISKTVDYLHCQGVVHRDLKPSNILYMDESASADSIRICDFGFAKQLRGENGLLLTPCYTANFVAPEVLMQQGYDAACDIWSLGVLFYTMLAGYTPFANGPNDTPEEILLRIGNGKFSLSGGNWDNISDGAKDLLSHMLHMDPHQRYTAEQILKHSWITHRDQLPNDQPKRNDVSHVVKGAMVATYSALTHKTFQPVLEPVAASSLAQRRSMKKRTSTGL

PLK4 = molecular target: T3, PLK4 (Homo sapiens, UniProt O00444); assay: Proqinase Kinase profiling; assay type: biochemical; conditions: read-out: % inhibition at 100nM
T3 construct: purchased DiscoverX
T3 sequence (O00444 whole entry): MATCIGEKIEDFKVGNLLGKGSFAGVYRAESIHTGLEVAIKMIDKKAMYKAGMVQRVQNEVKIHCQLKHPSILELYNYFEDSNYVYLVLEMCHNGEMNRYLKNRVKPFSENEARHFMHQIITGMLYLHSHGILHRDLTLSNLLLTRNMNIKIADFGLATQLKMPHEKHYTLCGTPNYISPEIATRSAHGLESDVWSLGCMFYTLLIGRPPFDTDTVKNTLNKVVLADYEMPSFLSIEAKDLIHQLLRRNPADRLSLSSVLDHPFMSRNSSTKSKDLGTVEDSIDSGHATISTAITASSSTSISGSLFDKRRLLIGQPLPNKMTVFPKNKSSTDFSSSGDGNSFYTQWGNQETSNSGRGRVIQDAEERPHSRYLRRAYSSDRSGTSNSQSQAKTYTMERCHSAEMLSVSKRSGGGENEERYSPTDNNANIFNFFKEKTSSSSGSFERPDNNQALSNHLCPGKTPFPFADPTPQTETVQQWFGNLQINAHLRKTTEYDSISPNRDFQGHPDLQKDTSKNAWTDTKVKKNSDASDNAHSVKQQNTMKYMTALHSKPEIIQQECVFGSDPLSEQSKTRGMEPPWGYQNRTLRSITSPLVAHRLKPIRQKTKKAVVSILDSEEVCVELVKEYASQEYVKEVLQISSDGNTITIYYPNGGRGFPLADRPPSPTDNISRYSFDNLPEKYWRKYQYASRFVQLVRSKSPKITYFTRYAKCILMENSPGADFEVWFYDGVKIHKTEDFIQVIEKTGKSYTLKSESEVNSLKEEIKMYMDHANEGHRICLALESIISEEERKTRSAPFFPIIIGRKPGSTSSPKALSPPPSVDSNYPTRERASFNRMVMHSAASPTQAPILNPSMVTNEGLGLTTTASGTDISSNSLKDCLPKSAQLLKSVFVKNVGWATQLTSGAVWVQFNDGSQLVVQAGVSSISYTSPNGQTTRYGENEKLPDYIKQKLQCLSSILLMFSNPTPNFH

EPHA1 = molecular target: T4, EPHA1 (Homo sapiens, UniProt P21709); assay: Proqinase Kinase profiling; assay type: biochemical; conditions: read-out: % inhibition at 100nM
T4 construct: purchased DiscoverX
T4 sequence (P21709 26-976): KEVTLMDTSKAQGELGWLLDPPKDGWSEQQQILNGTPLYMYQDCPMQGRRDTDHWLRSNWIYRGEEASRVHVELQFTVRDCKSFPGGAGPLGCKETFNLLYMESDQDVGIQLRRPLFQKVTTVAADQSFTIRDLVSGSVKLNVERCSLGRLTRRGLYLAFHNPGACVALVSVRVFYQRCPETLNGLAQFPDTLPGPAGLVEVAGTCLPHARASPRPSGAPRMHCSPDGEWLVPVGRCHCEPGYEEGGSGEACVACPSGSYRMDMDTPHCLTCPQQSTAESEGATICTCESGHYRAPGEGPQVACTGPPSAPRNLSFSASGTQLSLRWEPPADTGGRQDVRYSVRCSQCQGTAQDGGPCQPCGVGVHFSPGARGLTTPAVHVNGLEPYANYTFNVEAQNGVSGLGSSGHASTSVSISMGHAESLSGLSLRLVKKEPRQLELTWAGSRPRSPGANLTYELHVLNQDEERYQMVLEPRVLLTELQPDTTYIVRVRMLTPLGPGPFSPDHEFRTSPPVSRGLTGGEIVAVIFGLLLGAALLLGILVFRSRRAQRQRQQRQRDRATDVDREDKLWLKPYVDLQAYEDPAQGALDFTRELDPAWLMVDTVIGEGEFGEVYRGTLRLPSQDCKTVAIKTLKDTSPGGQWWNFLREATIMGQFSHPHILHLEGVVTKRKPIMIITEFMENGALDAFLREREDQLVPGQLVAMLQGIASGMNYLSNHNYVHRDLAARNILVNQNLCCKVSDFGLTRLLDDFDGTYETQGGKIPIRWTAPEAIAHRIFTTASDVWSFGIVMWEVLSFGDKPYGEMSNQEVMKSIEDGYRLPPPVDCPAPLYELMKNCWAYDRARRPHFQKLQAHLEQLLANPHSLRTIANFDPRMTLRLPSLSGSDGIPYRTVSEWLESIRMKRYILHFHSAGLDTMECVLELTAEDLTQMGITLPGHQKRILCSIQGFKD

CDK16_cyclinY = molecular target: T5, CDK16_cyclinY (Homo sapiens, UniProt Q00536); assay: Proqinase Kinase profiling; assay type: biochemical; conditions: read-out: % inhibition at 100nM
T5 construct: purchased DiscoverX

AKT1 = molecular target: T6, AKT1 (Homo sapiens, UniProt P31749); assay: Proqinase Kinase profiling; assay type: biochemical; conditions: read-out: % inhibition at 100nM
T6 construct: purchased DiscoverX
T6 sequence (P31749 whole entry): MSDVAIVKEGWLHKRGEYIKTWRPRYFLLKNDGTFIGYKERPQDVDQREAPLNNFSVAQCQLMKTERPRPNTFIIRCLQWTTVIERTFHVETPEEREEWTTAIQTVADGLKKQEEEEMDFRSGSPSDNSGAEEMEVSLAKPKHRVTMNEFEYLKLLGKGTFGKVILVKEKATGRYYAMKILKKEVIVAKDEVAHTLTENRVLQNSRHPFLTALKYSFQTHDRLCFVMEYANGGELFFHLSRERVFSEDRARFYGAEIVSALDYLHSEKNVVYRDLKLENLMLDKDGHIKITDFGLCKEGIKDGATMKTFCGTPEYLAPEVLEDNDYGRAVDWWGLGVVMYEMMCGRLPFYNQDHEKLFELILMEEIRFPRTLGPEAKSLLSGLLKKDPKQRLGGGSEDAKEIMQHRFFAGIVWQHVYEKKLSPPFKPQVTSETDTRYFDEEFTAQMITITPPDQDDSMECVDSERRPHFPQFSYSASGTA

MST4 = molecular target: T7, MST4 (Homo sapiens, UniProt Q9P289); assay: Proqinase Kinase profiling; assay type: biochemical; conditions: read-out: % inhibition at 100nM
T7 construct: purchased DiscoverX
T7 sequence (Q9P289 whole entry): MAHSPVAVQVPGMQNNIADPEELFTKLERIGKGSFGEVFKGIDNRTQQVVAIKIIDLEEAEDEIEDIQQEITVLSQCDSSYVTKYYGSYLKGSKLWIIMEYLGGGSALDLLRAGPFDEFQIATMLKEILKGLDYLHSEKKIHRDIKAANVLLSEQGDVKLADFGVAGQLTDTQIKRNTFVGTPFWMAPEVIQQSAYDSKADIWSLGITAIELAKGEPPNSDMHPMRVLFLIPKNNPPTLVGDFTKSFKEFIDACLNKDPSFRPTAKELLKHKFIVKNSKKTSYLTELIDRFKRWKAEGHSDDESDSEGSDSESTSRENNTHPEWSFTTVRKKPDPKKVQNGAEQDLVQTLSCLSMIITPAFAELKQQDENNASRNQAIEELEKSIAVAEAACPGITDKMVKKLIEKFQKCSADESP

PRKD1 = molecular target: T8, PRKD1 (Homo sapiens, UniProt Q15139); assay: Proqinase Kinase profiling; assay type: biochemical; conditions: read-out: % inhibition at 100nM
T8 construct: purchased DiscoverX
T8 sequence (Q15139 whole entry): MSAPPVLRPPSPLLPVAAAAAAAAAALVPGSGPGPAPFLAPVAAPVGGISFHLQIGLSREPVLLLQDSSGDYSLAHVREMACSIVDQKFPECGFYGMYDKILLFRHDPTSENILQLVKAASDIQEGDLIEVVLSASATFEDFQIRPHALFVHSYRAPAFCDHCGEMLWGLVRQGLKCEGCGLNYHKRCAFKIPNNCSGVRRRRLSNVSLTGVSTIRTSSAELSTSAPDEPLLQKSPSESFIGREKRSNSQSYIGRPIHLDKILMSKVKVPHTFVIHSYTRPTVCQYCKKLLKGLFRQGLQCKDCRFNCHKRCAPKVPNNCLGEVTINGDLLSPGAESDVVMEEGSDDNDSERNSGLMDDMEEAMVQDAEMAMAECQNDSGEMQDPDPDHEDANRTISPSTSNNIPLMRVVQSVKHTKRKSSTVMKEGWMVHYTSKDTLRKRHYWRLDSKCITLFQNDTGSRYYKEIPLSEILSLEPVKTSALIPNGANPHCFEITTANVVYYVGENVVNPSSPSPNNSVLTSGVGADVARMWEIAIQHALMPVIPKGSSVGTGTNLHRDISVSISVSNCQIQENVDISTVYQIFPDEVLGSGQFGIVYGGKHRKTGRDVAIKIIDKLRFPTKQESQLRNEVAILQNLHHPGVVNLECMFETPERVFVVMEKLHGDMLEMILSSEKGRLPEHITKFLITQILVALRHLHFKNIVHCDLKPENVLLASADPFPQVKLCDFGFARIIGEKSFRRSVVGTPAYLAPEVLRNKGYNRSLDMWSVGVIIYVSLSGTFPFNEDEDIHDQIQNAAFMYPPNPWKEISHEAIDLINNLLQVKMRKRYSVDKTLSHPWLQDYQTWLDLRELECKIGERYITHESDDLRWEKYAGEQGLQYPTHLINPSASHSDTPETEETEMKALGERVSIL

caALK1 = molecular target: T9, caALK1 (Homo sapiens, UniProt P37023, Q201D); assay: BRE-LUC with constitutive active ALK1 in C2C12 cells; assay type: cell-based; conditions: compound 0.5μM 16 hours
T9 construct: expressed in transfected cells; host or cells: C2C12 murine myofibroblast cells
Protocol: (§1) Compounds were added for 16 hours at 0.5μM before luciferase activity was measured.
(§2) For luciferase reporter assays, cells were seeded in 24-well plates and transfected with DharmaFECT Duo (Fisher Scientific, Landsmeer, The Netherlands), following the recommendations of the manufacturer. 48 hours after transfection the cells were harvested and lysed. […] Each transfection mixture was equalized with empty vector when necessary and every experiment was performed in triplicate.

caALK6 = assay: BRE-LUC with constitutive active ALK6 in C2C12 cells; assay type: cell-based; conditions: compound 0.5μM 16 hours
Protocol: as §1, §2

DDR2_N456S = molecular target: T10, DDR2_N456S (Homo sapiens, UniProt Q16832, N456S); assay: Proqinase Kinase profiling; assay type: biochemical; conditions: read-out: % inhibition at 100nM
T10 construct: purchased DiscoverX

MAP2K4 = molecular target: T11, MAP2K4 (Homo sapiens, UniProt P45985); assay: Proqinase Kinase profiling; assay type: biochemical; conditions: read-out: % inhibition at 100nM
T11 construct: purchased DiscoverX

PKN3 = molecular target: T12, PKN3 (Homo sapiens, UniProt Q6P5Z2); assay: Proqinase Kinase profiling; assay type: biochemical; conditions: read-out: % inhibition at 100nM
T12 construct: purchased DiscoverX

DDR2_T654M = molecular target: T13, DDR2_T654M (Homo sapiens, UniProt Q16832, T654M); assay: Proqinase Kinase profiling; assay type: biochemical; conditions: read-out: % inhibition at 100nM
T13 construct: purchased DiscoverX

CAMK2G = molecular target: T14, CAMK2G (Homo sapiens, UniProt Q13555); assay: Proqinase Kinase profiling; assay type: biochemical; conditions: read-out: % inhibition at 100nM
T14 construct: purchased DiscoverX
T14 sequence (Q13555 whole entry): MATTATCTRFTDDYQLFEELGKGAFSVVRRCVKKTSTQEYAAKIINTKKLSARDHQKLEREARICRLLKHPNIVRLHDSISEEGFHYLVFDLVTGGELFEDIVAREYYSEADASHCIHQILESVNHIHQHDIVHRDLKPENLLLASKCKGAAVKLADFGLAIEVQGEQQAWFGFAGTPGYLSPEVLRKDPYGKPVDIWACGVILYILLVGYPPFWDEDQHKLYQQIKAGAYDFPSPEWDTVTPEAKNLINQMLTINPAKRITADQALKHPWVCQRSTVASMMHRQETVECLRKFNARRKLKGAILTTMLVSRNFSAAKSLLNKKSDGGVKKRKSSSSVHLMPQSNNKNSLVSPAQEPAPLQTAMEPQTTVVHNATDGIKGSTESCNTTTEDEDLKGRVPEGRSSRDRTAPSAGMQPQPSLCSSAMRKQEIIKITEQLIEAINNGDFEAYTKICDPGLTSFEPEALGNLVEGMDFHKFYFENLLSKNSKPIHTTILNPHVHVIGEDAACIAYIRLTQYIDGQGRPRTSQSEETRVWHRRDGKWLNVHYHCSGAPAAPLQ

TTBK1 = molecular target: T15, TTBK1 (Homo sapiens, UniProt Q5TCY1); assay: Proqinase Kinase profiling; assay type: biochemical; conditions: read-out: % inhibition at 100nM
T15 construct: purchased DiscoverX

CDC7_DBF4 = molecular target: T16, CDC7_DBF4 (Homo sapiens, UniProt O00311); assay: Proqinase Kinase profiling; assay type: biochemical; conditions: read-out: % inhibition at 100nM
T16 construct: purchased DiscoverX

PKMYT1 = molecular target: T17, PKMYT1 (Homo sapiens, UniProt Q99640); assay: Proqinase Kinase profiling; assay type: biochemical; conditions: read-out: % inhibition at 100nM
T17 construct: purchased DiscoverX

VRK2 = molecular target: T18, VRK2 (Homo sapiens, UniProt Q86Y07); assay: Proqinase Kinase profiling; assay type: biochemical; conditions: read-out: % inhibition at 100nM
T18 construct: purchased DiscoverX

TTBK2 = molecular target: T19, TTBK2 (Homo sapiens, UniProt Q6IQ55); assay: Proqinase Kinase profiling; assay type: biochemical; conditions: read-out: % inhibition at 100nM
T19 construct: purchased DiscoverX

MAP2K7 = molecular target: T20, MAP2K7 (Homo sapiens, UniProt O14733); assay: Proqinase Kinase profiling; assay type: biochemical; conditions: read-out: % inhibition at 100nM
T20 construct: purchased DiscoverX

SIK1 = molecular target: T21, SIK1 (Homo sapiens, UniProt P57059); assay: Proqinase Kinase profiling; assay type: biochemical; conditions: read-out: % inhibition at 100nM
T21 construct: purchased DiscoverX

ALK/NPM1 = molecular target: T22, ALK/NPM1 (Homo sapiens, UniProt P06748+Q9UM73); assay: Proqinase Kinase profiling; assay type: biochemical; conditions: read-out: % inhibition at 100nM
T22 construct: purchased DiscoverX

CDK6_cyclinD3 = molecular target: T23, CDK6_cyclinD3 (Homo sapiens, UniProt Q00534); assay: Proqinase Kinase profiling; assay type: biochemical; conditions: read-out: % inhibition at 100nM
T23 construct: purchased DiscoverX

MAP2K5 = molecular target: T24, MAP2K5 (Homo sapiens, UniProt Q13163); assay: Proqinase Kinase profiling; assay type: biochemical; conditions: read-out: % inhibition at 100nM
T24 construct: purchased DiscoverX

BUB1B = molecular target: T25, BUB1B (Homo sapiens, UniProt O60566); assay: Proqinase Kinase profiling; assay type: biochemical; conditions: read-out: % inhibition at 100nM
T25 construct: purchased DiscoverX

MLK4 = molecular target: T26, MLK4 (Homo sapiens, UniProt Q5TCX8); assay: Proqinase Kinase profiling; assay type: biochemical; conditions: read-out: % inhibition at 100nM
T26 construct: purchased DiscoverX

EPHA6 = molecular target: T27, EPHA6 (Homo sapiens, UniProt Q9UF33); assay: Proqinase Kinase profiling; assay type: biochemical; conditions: read-out: % inhibition at 100nM
T27 construct: purchased DiscoverX

BRSK2 = molecular target: T28, BRSK2 (Homo sapiens, UniProt Q8IWQ3); assay: Proqinase Kinase profiling; assay type: biochemical; conditions: read-out: % inhibition at 100nM
T28 construct: purchased DiscoverX

ALK_F1174L/NPM1 = molecular target: T29, ALK_F1174L/NPM1 (Homo sapiens, UniProt P06748+Q9UM73, F1174L); assay: Proqinase Kinase profiling; assay type: biochemical; conditions: read-out: % inhibition at 100nM
T29 construct: purchased DiscoverX

What does the source list for Clc1cc2cc(c1)-c1cnn3ccc(nc13)NCCOCCO2 [OD36]?
inhibition at 0.1 µM (ABL1_G250E): 5%; inhibition at 0.1 µM (RPS6KA6): 8%; inhibition at 0.1 µM (PLK4): -1%; inhibition at 0.1 µM (EPHA1): 6%; inhibition at 0.1 µM (CDK16_cyclinY): 12%; inhibition at 0.1 µM (AKT1): 4%; inhibition at 0.1 µM (MST4): 3%; inhibition at 0.1 µM (PRKD1): -11%

Which “Inhibition of caALK1-driven BRE-LUC activity” value (caALK1) does the source give for c1ccc2c(-c3cnn4cc(-c5ccc(N6CCNCC6)cc5)cnc34)ccnc2c1 [LDN-193189, reference compound] here?
The value was “significantly inhibited”.

What about the “Inhibition of caALK6-driven BRE-LUC activity” value (caALK6) of the same molecule?
The value was “significantly inhibited”.

With Cc1cc2cc(c1)-c1cnn3ccc(nc13)NCCNC(=O)CCN(C)C2 [OD52] as the molecule, how does the inhibition at 0.1 µM (DDR2_N456S) read?
The inhibition at 0.1 µM was 33%.

What about the inhibition at 0.1 µM (MAP2K4) of the same molecule?
Its inhibition at 0.1 µM is 17%.

What about the inhibition at 0.1 µM (PKN3) of the same molecule?
The inhibition at 0.1 µM was 16%.

And the inhibition at 0.1 µM (DDR2_T654M)?
The inhibition at 0.1 µM was 15%.

And the inhibition at 0.1 µM (CAMK2G)?
The inhibition at 0.1 µM was 10%.

And the inhibition at 0.1 µM (TTBK1)?
Its inhibition at 0.1 µM is 8%.

What about the inhibition at 0.1 µM (CDC7_DBF4) of the same molecule?
The inhibition at 0.1 µM was 6%.

What about the inhibition at 0.1 µM (ABL1_G250E) of the same molecule?
Its inhibition at 0.1 µM is 6%.

What about the inhibition at 0.1 µM (PKMYT1) of the same molecule?
Its inhibition at 0.1 µM is 6%.

What about the inhibition at 0.1 µM (VRK2) of the same molecule?
The inhibition at 0.1 µM was 6%.

What about the inhibition at 0.1 µM (TTBK2) of the same molecule?
Its inhibition at 0.1 µM is 4%.

And the inhibition at 0.1 µM (MAP2K7)?
Its inhibition at 0.1 µM is 4%.

What about the inhibition at 0.1 µM (RPS6KA6) of the same molecule?
Its inhibition at 0.1 µM is 0%.

What about the inhibition at 0.1 µM (PLK4) of the same molecule?
The inhibition at 0.1 µM was -1%.

What about the inhibition at 0.1 µM (EPHA1) of the same molecule?
The inhibition at 0.1 µM was -1%.

What about the inhibition at 0.1 µM (CDK16_cyclinY) of the same molecule?
Its inhibition at 0.1 µM is -2%.

What about the inhibition at 0.1 µM (SIK1) of the same molecule?
Its inhibition at 0.1 µM is -2%.

And the inhibition at 0.1 µM (AKT1)?
Its inhibition at 0.1 µM is -4%.

What about the inhibition at 0.1 µM (ALK/NPM1) of the same molecule?
The inhibition at 0.1 µM was -5%.

What about the inhibition at 0.1 µM (CDK6_cyclinD3) of the same molecule?
The inhibition at 0.1 µM was -7%.

What about the inhibition at 0.1 µM (MAP2K5) of the same molecule?
The inhibition at 0.1 µM was -9%.

And the inhibition at 0.1 µM (BUB1B)?
The inhibition at 0.1 µM was -10%.

And the inhibition at 0.1 µM (MLK4)?
The inhibition at 0.1 µM was -11%.

And the inhibition at 0.1 µM (EPHA6)?
The inhibition at 0.1 µM was -12%.

What about the inhibition at 0.1 µM (BRSK2) of the same molecule?
Its inhibition at 0.1 µM is -13%.

What about the inhibition at 0.1 µM (ALK_F1174L/NPM1) of the same molecule?
Its inhibition at 0.1 µM is -16%.

What about the inhibition at 0.1 µM (MST4) of the same molecule?
Its inhibition at 0.1 µM is -17%.

And the inhibition at 0.1 µM (PRKD1)?
Its inhibition at 0.1 µM is -22%.
